Read-outs that look alike come from different tables or passages of the source.

This test concerns the target T1, human APJ receptor (Homo sapiens, UniProt P35414).
T1 construct: expressed in transfected cells
T1 sequence (P35414 1-380): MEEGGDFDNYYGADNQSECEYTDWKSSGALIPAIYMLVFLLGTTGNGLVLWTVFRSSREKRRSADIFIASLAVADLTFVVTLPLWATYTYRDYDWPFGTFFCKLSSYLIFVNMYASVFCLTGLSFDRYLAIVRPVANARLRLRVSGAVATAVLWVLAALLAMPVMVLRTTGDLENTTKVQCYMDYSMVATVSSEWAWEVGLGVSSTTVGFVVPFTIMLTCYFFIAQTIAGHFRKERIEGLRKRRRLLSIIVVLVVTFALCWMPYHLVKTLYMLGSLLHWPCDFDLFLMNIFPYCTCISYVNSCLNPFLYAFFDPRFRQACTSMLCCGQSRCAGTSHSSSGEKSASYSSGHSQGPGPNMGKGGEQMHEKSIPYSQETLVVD
Briefly: Intracellular cAMP accumulation assay (APJ hcAMP, HTRF). It counts as cell-based. The following applies: HEK293 cells stably expressing human APJ, forskolin-stimulated cAMP. On the procedure:
Intracellular cAMP Accumulation Assay
HEK293 cells stably expressing human APJ receptor were used to assess the activity of compounds. Cultured cells were detached and resuspended in the cAMP Homogeneous Time-Resolved Fluorescence (HTRF) assay buffer (Cisbio cat; #62AM4PEJ). […] Serial dilutions of a compound together with assay buffer containing […] and 2 μM forskolin were added to each well containing 5,000 cells and incubated for 30 minutes at room temperature. Subsequently, cAMP D2 reagent was added in the lysis buffer followed by the EuK antibody (Cisbio; cat #62AM4PEJ) and incubated for 60 min. The fluorescence emission ratio was measured using fluorometer. The intracellular cAMP concentrations (compound-stimulated inhibition of forskolin-mediated cAMP production) were calculated by extrapolation from a standard curve using known cAMP concentrations. The EC50 values were obtained by fitting the data to a sigmoidal concentration-response curve with variable slope.
The EC50 value of each compound is presented at the end of the example description.
The biological activity of the exemplified compounds of this invention determined by the assay described above is shown at the end of each example.

Setting [1] is: Table 1, read-out: APJ cAMP EC50.
[2] abbreviates: Table 4, read-out: Human cAMP EC50.
Setting [3] is: Table 3, read-out: APJ cAMP EC50.
The mark [4] stands for this setting: Table 7, read-out: Human cAMP EC50.
[5] abbreviates: Table 6, read-out: Human cAMP EC50.

By EC50 is commonly meant the concentration giving half of the maximal effect. Take `CCCCc1nc(O)c(C(=O)N2CCN(c3ccc(OC)cc3)CC2)c(O)c1-c1c(OC)cccc1OC` [Example 18, 6-butyl-5-(2,6-dimethoxyphenyl)-3-[4-(4-methoxyphenyl)piperazine-1-carbonyl]pyridine-2,4-diol]: the EC50 under setting [1] lay within 10 to 100 nM. Consider `COc1cccc(-c2c(-c3csc(C)n3)nc(O)c(C(=O)N3CCC(c4ncc(F)cc4F)C3)c2O)c1` (stereo not drawn) [Example 128, 3-[3-(3,5-difluoropyridin-2-yl)pyrrolidine-1-carbonyl]-5-(3-methoxyphenyl)-6-(2-methyl-1,3-thiazol-4-yl)pyridine-2,4-diol], for which the EC50 (Table 5, read-out: Human cAMP EC50) fell in the range of 10 to 100 nM. For `CCCCc1nc(O)c(C(=O)N2CCN(C(=O)c3cccc(F)c3)CC2)c(O)c1-c1c(OC)cccc1OC` [Example 42, 6-butyl-5-(2,6-dimethoxyphenyl)-3-[4-(3-fluorobenzoyl)piperazine-1-carbonyl]pyridine-2,4-diol], the EC50 under setting [1] fell in the range of 0.01 to 10 nM. For `CCCCc1nc(O)c(C(=O)N2CC(Oc3ncccc3F)C2)c(O)c1-c1c(OC)cccc1OC` [Example 115, 6-butyl-5-(2,6-dimethoxyphenyl)-3-{3-[(3-fluoropyridin-2-yl)oxy]azetidine-1-carbonyl}pyridine-2,4-diol], the EC50 under setting [2] lay within 0.01 to 10 nM. Take `CCCCc1nc(O)c(C(=O)N2CCC(c3ccc(Cl)cn3)C2)c(O)c1-c1c(OC)cccc1OC` (stereo not drawn) [Example 75, 6-butyl-3-[3-(5-chloropyridin-2-yl)pyrrolidine-1-carbonyl]-5-(2,6-dimethoxyphenyl)pyridine-2,4-diol]: the concentration for a half-maximal effect (EC50) under setting [3] was in the range of 0.01 to 10 nM.

For `CCCCc1nc(O)c(C(=O)N2CCN(Cc3ncccc3F)CC2)c(O)c1-c1c(OC)cccc1OC` [Example 120, 6-butyl-5-(2,6-dimethoxyphenyl)-3-{4-[(3-fluoropyridin-2-yl)methyl]piperazine-1-carbonyl}pyridine-2,4-diol], under setting [2], the 50% effective concentration (EC50) is 0.01 to 10 nM. Turning to `CCCCc1nc(O)c(C(=O)N2CCC(c3ccccc3)CC2)c(O)c1-c1c(OC)cccc1OC` [Example 62, 6-butyl-5-(2,6-dimethoxyphenyl)-3-(4-phenylpiperidine-1-carbonyl)pyridine-2,4-diol], the concentration for a half-maximal effect (EC50) under setting [1] lay in the range of 10 to 100 nM. Same read-out and setting: in the case of `CCCCc1nc(O)c(C(=O)N2CCC(c3ccccc3OC)CC2)c(O)c1-c1c(OC)cccc1OC` [Example 19, 6-butyl-5-(2,6-dimethoxyphenyl)-3-[4-(2-methoxyphenyl)piperidine-1-carbonyl]pyridine-2,4-diol] it was 10 to 100 nM. Consider `CCCCc1nc(O)c(C(=O)N(CCC)CCc2ccccc2F)c(O)c1-c1c(OC)cccc1OC` [Example 117, 6-butyl-5-(2,6-dimethoxyphenyl)-N-[2-(2-fluorophenyl)ethyl]-2,4-dihydroxy-N-propylpyridine-3-carboxamide], for which the half-maximal effective concentration (EC50) under setting [2] lay in the range of 100 to 300 nM.

With `CCCCc1nc(O)c(C(=O)N2CCC(c3ccc(F)cc3)C2)c(O)c1-c1c(OC)cccc1OC` (single isomer, unassigned) [Example 39, 6-butyl-5-(2,6-dimethoxyphenyl)-3-[3-(4-fluorophenyl)pyrrolidine-1-carbonyl]pyridine-2,4-diol], under “Table 2, read-out: APJ cAMP EC50”, the 50% effective concentration (EC50) lay within 0.01 to 10 nM. Turning to `CCCCc1nc(O)c(C(=O)N2CCN(c3ccc(Cl)cn3)CC2)c(O)c1-c1c(OC)cccc1OC` [Example 6, 6-butyl-3-[4-(5-chloropyridin-2-yl)piperazine-1-carbonyl]-5-(2,6-dimethoxyphenyl)pyridine-2,4-diol], the half-maximal effective concentration (EC50) under setting [1] fell in the range of 10 to 100 nM. With `CCCCc1nc(O)c(C(=O)N2CCC(c3ncc(F)cc3F)C2)c(O)c1-c1cccc(C(C)C)c1` (stereo not drawn) [Example 140, 6-butyl-3-[3-(3,5-difluoropyridin-2-yl)pyrrolidine-1-carbonyl]-5-[3-(propan-2-yl)phenyl]pyridine-2,4-diol], under setting [4], the EC50 lay within 0.01 to 10 nM. For the compound `CCCCc1nc(O)c(C(=O)N2CCN(Cc3cc(F)ccc3F)CC2)c(O)c1-c1c(OC)cccc1OC` [Example 122, 6-butyl-3-{4-[(2,5-difluorophenyl)methyl]piperazine-1-carbonyl}-5-(2,6-dimethoxyphenyl)pyridine-2,4-diol], under setting [2], the EC50 fell in the range of 0.01 to 10 nM. With `CCCCc1nc(O)c(C(=O)N2CCN(c3ncccc3C(F)(F)F)CC2)c(O)c1-c1c(OC)cccc1OC` [Example 11, 6-butyl-5-(2,6-dimethoxyphenyl)-3-{4-[3-(trifluoromethyl)pyridin-2-yl]piperazine-1-carbonyl}pyridine-2,4-diol], the concentration giving a half-maximal response (EC50) under setting [1] was in the range of 10 to 100 nM. Regarding `CCCCc1nc(O)c(C(=O)N2CCN(c3cccc(Cl)c3)CC2)c(O)c1-c1c(OC)cccc1OC` [Example 58, 6-butyl-3-[4-(3-chlorophenyl)piperazine-1-carbonyl]-5-(2,6-dimethoxyphenyl)pyridine-2,4-diol], under setting [1], the EC50 was 10 to 100 nM.

As to `CCCCc1nc(O)c(C(=O)N2CCC(c3ncc(F)cc3F)C2)c(O)c1-c1cccc(CO)c1` (stereo not drawn) [Example 147, 6-butyl-3-[3-(3,5-difluoropyridin-2-yl)pyrrolidine-1-carbonyl]-5-[3-(hydroxymethyl)phenyl]pyridine-2,4-diol], under setting [4], the concentration for a half-maximal effect (EC50) fell in the range of 0.01 to 10 nM.

In the case of `CCCCc1nc(O)c(C(=O)N2CCN(c3nc(-c4ccccc4)ns3)CC2)c(O)c1-c1c(OC)cccc1OC` [Example 60, 6-butyl-5-(2,6-dimethoxyphenyl)-3-[4-(3-phenyl-1,2,4-thiadiazol-5-yl)piperazine-1-carbonyl]pyridine-2,4-diol], the EC50 under setting [1] fell in the range of 10 to 100 nM. Same read-out and setting: next, `CCCCc1nc(O)c(C(=O)N2CCN(C3CCCCC3)CC2)c(O)c1-c1c(OC)cccc1OC` [Example 63, 6-butyl-3-(4-cyclohexylpiperazine-1-carbonyl)-5-(2,6-dimethoxyphenyl)pyridine-2,4-diol]: 10 to 100 nM.

With `CCOCc1nc(O)c(C(=O)N2CCC(c3ccc(F)cc3F)C2)c(O)c1-c1c(OC)cccc1OC` (stereo not drawn) [Example 131], the EC50 under setting [5] fell in the range of 0.01 to 10 nM.

As to `CCCCc1nc(O)c(C(=O)N2CCN(Cc3ccc(F)cc3)CC2)c(O)c1-c1c(OC)cccc1OC` [Example 43, 6-butyl-5-(2,6-dimethoxyphenyl)-3-{4-[(4-fluorophenyl)methyl]piperazine-1-carbonyl}pyridine-2.4-diol], the EC50 under setting [1] lay within 0.01 to 10 nM.

As for `CCCCc1nc(O)c(C(=O)N2CCC(c3noc4cc(F)ccc34)CC2)c(O)c1-c1c(OC)cccc1OC` [Example 65, 6-butyl-5-(2,6-dimethoxyphenyl)-3-[4-(6-fluoro-1,2-benzoxazol-3-yl)piperidine-1-carbonyl]pyridine-2,4-diol], the EC50 under setting [1] is 10 to 100 nM. Turning to `CCCCc1nc(O)c(C(=O)N2CCC(c3ncc(F)cc3F)C2)c(O)c1-c1c(OC)cccc1OC` (stereo not drawn) [Example 82, 6-butyl-3-[3-(3,5-difluoropyridin-2-yl)pyrrolidine-1-carbonyl]-5-(2,6-dimethoxyphenyl)pyridine-2,4-diol], under setting [3], the EC50 lay in the range of 0.01 to 10 nM.

In the case of `CCOCc1nc(O)c(C(=O)N2CCC(c3ccc(F)cc3F)C2)c(O)c1-c1c(OC)cccc1OC` (stereo not drawn) [Example 132, 3-[3-(2,4-difluorophenyl)pyrrolidine-1-carbonyl]-5-(2,6-dimethoxyphenyl)-6-(ethoxymethyl)-4-hydroxy-1,2-dihydropyridin-2-one], under setting [5], the EC50 was 0.01 to 10 nM.

Regarding `CCCCc1nc(O)c(C(=O)N2CCC(c3ncc(F)cc3F)C2)c(O)c1-c1cccc(CO)c1` (stereo not drawn) [Example 144, 6-butyl-3-[3-(3,5-difluoropyridin-2-yl)pyrrolidine-1-carbonyl]-5-[3-(hydroxymethyl)phenyl]pyridine-2,4-diol], the EC50 under setting [4] is 0.01 to 10 nM.

Source of the values: patent publication US10392347B2, “2,4-dihydroxy-nicotinamides as APJ agonists” (BRISTOL-MYERS SQUIBB COMPANY, priority 2015, dated 2019).
